# Experiments:
# [1] = tested on: sickle erythrocytes (sickle cell blood); assay: Reverse Erythrocyte Morphology, deoxygenation induced sickling; format: cell-based, human
# Experimental: (§1) Blood collected from individuals with homozygous sickle cell disease, as well as normal blood, was anticoagulated with ethylenediaminetetraacetic acid (EDTA) and refrigerated until used. To portions of the blood samples were added appropriate volumes of a solution of the compound to be tested so that final concentrations of 0.0125 molar (M), 0.025 M, 0.05 M or 0.1 M were obtained, and the mixtures were incubated at 37° C. for 30 minutes. The test compounds were dissolved in saline. Appropriate volumes of saline were added to the control samples. Urea in invert sugar (UIS) at 0.05 M to 1.5 M concentrations was used as an agent capable of transforming sickled cells into normal forms and was therefore used as a positive control.
# (§2) Anoxic sickling (deoxygenation) was induced by exposing sickle blood to a hydrated 95% nitrogen, 5% carbon dioxide atmosphere for 60 minutes.
# (§3) After the sickling stimulus, slides were prepared. A volume of 0.2 ml of sickled cells were fixed in 1.0 ml of 3.2% glutaraldehyde in 0.1 M cacodylic buffer. Wet slides were prepared and sealed.
# (§4) The slides were scored for normal cells (Typ.), atypical cells (Atyp.) and sickled cells (Sickle) on the basis of counting 300 cells per slide.
# (§5) The compound 2-((4-cyanophenoxy)methyl)-2-imidazoline p-toluenesulfonate (Example 2) was tested for its ability to reverse the sickling process by first applying the hereinabove noted sickling stimuli to the sickle cell blood and then adding the test compound to the red cell suspensions.
# [2] = Toxicity (LD50) in mice; details: mouse, in vivo, ip, intraperitoneal injection
# [3] = molecular target: Hb-S (Homo sapiens, UniProt P68871+P69905, E7V); assay: Oxygen-Affinity Assay (whole Hb-S blood); format: cell-based; details: 10 mM, 37° C.
# Experimental: The compounds described herein were tested in an "Oxygen-Affinity Assay" to measure the ability of the compound to influence the Hb-S oxygen affinity. There is a relationship between oxygen binding and Hb-S gelation and thus a measure of oxygen affinity is an index of Hb-S aggregation within the red blood cell. Hemoglobin S polymers decrease the overall oxygen affinity. Thus a return to normal of Hb-S oxygen affinity is a measure of decreased gelation.
# For measurements of oxygen equilibria whole Hb-S blood was equilibrated in a tonometer at 37° C. and measurements were made in the presence of a 10 millimolar (mM) concentration of the test compound. Some of the compounds were also tested at a 5 mM concentration. The whole blood pH, oxygen tension, and blood PO2 were measured.
# The percentage of oxygen saturation was plotted against the partial pressure of oxygen (mm Hg). The P50 value (oxygen tension at 50% saturation) was determined for each control and treated whole blood sample and the difference (ΔP50) between the control and treated whole blood sample noted. As used herein, a negative ΔP50 represents a change toward a normal Hb-S oxygen affinity and thus is a measure of the test compound's ability to inhibit the sickling of sickle erythrocytes.
# [4] = tested on: sickle erythrocytes (intact sickle cells); assay: Blockade Erythrocyte Morphology, deoxygenation induced sickling; format: cell-based, human
# Experimental: (§6) The compound 2-((4-cyanophenoxy)methyl)-2-imidazoline p-toluenesulfonate (Example 2) and 2-((3-cyanophenoxy)methyl)-2-imidazoline p-toluenesulfonate (Example 4) were tested for anti-sickling activity using a suspension of intact sickle cells as follows:
# as §1, §2, §3, §4
# [5] = tested on: sickle erythrocytes (sickle cell blood); assay: Reverse Erythrocyte Morphology, chemically induced sickling (sodium metabisulfite); format: cell-based, human
# Experimental: as §1
# (§7) Sickling was induced chemically by reducing the blood samples with an equal volume of a 2% solution of sodium metabisulfite in phosphate-buffered saline for 30 minutes.
# as §3, §4, §5
# [6] = tested on: sickle erythrocytes (intact sickle cells); assay: Blockade Erythrocyte Morphology, chemically induced sickling (sodium metabisulfite); format: cell-based, human
# Experimental: as §6, §1, §7, §3, §4
# [7] = over the ranges tested (0.025-0.1 M)
# [8] = reverse, deoxygenation, 0.025 M, vs control
# [9] = reverse, deoxygenation, 0.05 M, vs control
# [10] = reverse, deoxygenation, 0.1 M, vs control
# [11] = deoxygenation, 0.025 M, vs control
# [12] = deoxygenation, 0.05 M, vs control
# [13] = deoxygenation, 0.1 M, vs control
# [14] = reverse, chemically induced, 0.025 M, vs control
# [15] = reverse, chemically induced, 0.05 M
# [16] = reverse, chemically induced, 0.05 M, vs control
# [17] = reverse, chemically induced, 0.1 M
# [18] = reverse, chemically induced, 0.1 M, vs control
structure (smiles),measurement,setting,value
"Cc1ccc(S(=O)(=O)O)cc1.N#Cc1ccc(OCC2=NCCN2)cc1 [Example 2, 2-((4-Cyanophenoxy)methyl)-2-imidazoline p-Toluenesulfonate]",inhibition at 25000 µM,"[1]; Homo sapiens, Erythrocyte, reverse, deoxygenation, 0.025 M, vs control, read-out: Percent Change, Sickle (sickled cells)",47%
same,inhibition at 50000 µM,"[1]; Homo sapiens, Erythrocyte, reverse, deoxygenation, 0.05 M, vs control, read-out: Percent Change, Sickle (sickled cells)",46%
same,inhibition at 100000 µM,"[1]; Homo sapiens, Erythrocyte, reverse, deoxygenation, 0.1 M, vs control, read-out: Percent Change, Sickle (sickled cells)",41%
same,reversal of sickling induced by deoxygenation,[1]; [7],effectively reversed sickling
same,Lysis,"[1]; reverse, deoxygenation, 0.025 M",-
same,"Percent Change, Atyp. (atypical cells)",[1]; [8],-22%
same,"Percent Change, Typ. (normal cells)",[1]; [8],+133%
same,Lysis,"[1]; reverse, deoxygenation, 0.05 M",-
same,"Percent Change, Atyp. (atypical cells)",[1]; [9],-26%
same,"Percent Change, Typ. (normal cells)",[1]; [9],+142%
same,Lysis,"[1]; reverse, deoxygenation, 0.1 M",± (the appearance of some cell lysis at that particular test compound concentration)
same,hemolysis (in words),"[1]; reverse, deoxygenation, 0.1 M",some hemolysis observed
same,"Percent Change, Atyp. (atypical cells)",[1]; [10],-46%
same,"Percent Change, Typ. (normal cells)",[1]; [10],+202%
same,LD50,[2],316 mg/kg
same,"Δ P50 (oxygen tension at 50% saturation, difference control vs treated)",[3],-9.1 mm Hg
same,inhibition at 25000 µM,"[4]; Homo sapiens, Erythrocyte, deoxygenation, 0.025 M, vs control, read-out: Percent Change, Sickle (sickled cells)",19%
same,inhibition at 50000 µM,"[4]; Homo sapiens, Erythrocyte, deoxygenation, 0.05 M, vs control, read-out: Percent Change, Sickle (sickled cells)",27%
same,inhibition at 100000 µM,"[4]; Homo sapiens, Erythrocyte, deoxygenation, 0.1 M, vs control, read-out: Percent Change, Sickle (sickled cells)",61%
same,interference with deoxygenation induced sickling,[4]; Table 1,interfered with deoxygenation induced sickling
same,Lysis,"[4]; deoxygenation, 0.025 M",-
same,"Percent Change, Atyp. (atypical cells)",[4]; [11],-36%
same,"Percent Change, Typ. (normal cells)",[4]; [11],+86%
same,Lysis,"[4]; deoxygenation, 0.05 M",-
same,cell lysis (in words),"[4]; deoxygenation, 0.05 M",without the appearance of cell lysis
same,"Percent Change, Atyp. (atypical cells)",[4]; [12],-36%
same,"Percent Change, Typ. (normal cells)",[4]; [12],+106%
same,Lysis,"[4]; deoxygenation, 0.1 M",± (the appearance of some cell lysis at that particular test compound concentration)
same,"Percent Change, Atyp. (atypical cells)",[4]; [13],-39%
same,"Percent Change, Typ. (normal cells)",[4]; [13],+170%
same,inhibition at 25000 µM,"[5]; Homo sapiens, Erythrocyte, reverse, chemically induced, 0.025 M, vs control, read-out: Percent Change, Sickle (sickled cells)",27%
same,inhibition at 50000 µM,"[5]; Homo sapiens, Erythrocyte, reverse, chemically induced, 0.05 M, vs control, read-out: Percent Change, Sickle (sickled cells)",52%
same,inhibition at 100000 µM,"[5]; Homo sapiens, Erythrocyte, reverse, chemically induced, 0.1 M, vs control, read-out: Percent Change, Sickle (sickled cells)",48%
same,reversal of sickling induced chemically,[5]; [7],effectively reversed sickling
same,Lysis,"[5]; reverse, chemically induced, 0.025 M",-
same,"Percent Change, Atyp. (atypical cells)",[5]; [14],-49%
same,"Percent Change, Typ. (normal cells)",[5]; [14],+48%
same,Lysis,[5]; [15],± (the appearance of some cell lysis at that particular test compound concentration)
same,hemolysis (in words),[5]; [15],some hemolysis observed
same,"Percent Change, Atyp. (atypical cells)",[5]; [16],-73%
same,"Percent Change, Typ. (normal cells)",[5]; [16],+87%
same,Lysis,[5]; [17],± (the appearance of some cell lysis at that particular test compound concentration)
same,hemolysis (in words),[5]; [17],some hemolysis observed
same,"Percent Change, Atyp. (atypical cells)",[5]; [18],-96%
same,"Percent Change, Typ. (normal cells)",[5]; [18],+86%
same,sickling inhibitory effect in the chemically induced test system,[6],slightly sickling inhibitory effect
same,Lysis,[6]; 0.025 M,-
same,"Percent Change, Atyp. (atypical cells)","[6]; 0.025 M, vs control",-14%
same,"Percent Change, Typ. (normal cells)","[6]; 0.025 M, vs control",+56%
same,Lysis,[6]; 0.05 M,-
same,"Percent Change, Atyp. (atypical cells)","[6]; 0.05 M, vs control",+138%
same,"Percent Change, Typ. (normal cells)","[6]; 0.05 M, vs control",+84%
same,Lysis,[6]; 0.1 M,± (the appearance of some cell lysis at that particular test compound concentration)
same,"Percent Change, Atyp. (atypical cells)","[6]; 0.1 M, vs control",-63%
same,"Percent Change, Typ. (normal cells)","[6]; 0.1 M, vs control",+78%
same,inhibition at 25000 µM,"[6]; Homo sapiens, Erythrocyte, 0.5 h, 0.025 M, vs control, read-out: Percent Change, Sickle (sickled cells)",27%
same,inhibition at 50000 µM,"[6]; Homo sapiens, Erythrocyte, 0.5 h, 0.05 M, vs control, read-out: Percent Change, Sickle (sickled cells)",29%
same,inhibition at 100000 µM,"[6]; Homo sapiens, Erythrocyte, 0.5 h, 0.1 M, vs control, read-out: Percent Change, Sickle (sickled cells)",32%
